In patent US20080269174A1 (priority 2005, published 2008):
Values joined by “and” are separate entries in the source; they are usually repeats but may differ in a detail not shown here. Equal values may be shown once. Read-outs that look alike come from different tables or passages of the source.

Assays:
Experiment in all cases: microbe, parasite or virus in culture
Format in all cases: cell-based
Pythium ultimum = test system: Pythium ultimum
Rhizoctonia solani = conditions: 72 h, read-out: % activity observed
Ustilago nuda = test system: Ustilago nuda
Pyrenophora graminea = conditions: for % activity observed: 72 hrs
Fusarium graminearum = conditions: for % activity observed: 48 hrs
Monographella nivalis = conditions: for % activity observed: 72 hrs
Gaeumannomyces graminis = conditions: for % activity observed: 72 hrs
[1] = Globisporangium ultimum, 48 h, read-out: % activity observed
[2] = Ustilago nuda, 48 h, read-out: % activity observed
[3] = Pyrenophora graminea, 72 h, read-out: % activity observed
[4] = Fusarium graminearum, 48 h, read-out: % activity observed, 10 ppm applied alone
[5] = Monographella nivalis, 72 h, read-out: % activity observed
[6] = Gaeumannomyces graminis, 72 h, read-out: % activity observed

With CC1COC(Cn2cncn2)(c2ccc(Oc3ccc(Cl)cc3)cc2Cl)O1 (stereo not shown) [Difenconazole, Difenoconazole] the inhibition at 0.014 ppm (Pythium ultimum; [1]) was 5%, the inhibition at 0.041 ppm (Pythium ultimum; [1]) was 0% and the inhibition at 0.123 ppm (Pythium ultimum; [1]) was 0%. It also gave an inhibition at 0.37 ppm (Pythium ultimum; [1]) of 0%, an inhibition at 1.111 ppm (Pythium ultimum; [1]) of 0% and an inhibition at 3.333 ppm (Pythium ultimum; [1]) of 0%. The inhibition at 10 ppm (Pythium ultimum; [1]) was 7%, the inhibition at 0.014 ppm (Rhizoctonia solani) was 5% and the inhibition at 0.041 ppm (Rhizoctonia solani) was 0%. It also gave an inhibition at 0.123 ppm (Rhizoctonia solani) of 27%, an inhibition at 0.37 ppm (Rhizoctonia solani) of 30% and an inhibition at 1.111 ppm (Rhizoctonia solani) of 84%. For the same compound, the inhibition at 3.333 ppm (Rhizoctonia solani) was 88%, the inhibition at 10 ppm (Rhizoctonia solani) was 84% and the inhibition at 0.014 ppm (Ustilago nuda; [2]) was 4%. For the same compound, the inhibition at 0.041 ppm (Ustilago nuda; [2]) was 0%, the inhibition at 0.123 ppm (Ustilago nuda; [2]) was 0% and the inhibition at 0.37 ppm (Ustilago nuda; [2]) was 0%. It also gave an inhibition at 1.111 ppm (Ustilago nuda; [2]) of 0%, an inhibition at 3.333 ppm (Ustilago nuda; [2]) of 0% and an inhibition at 10 ppm (Ustilago nuda; [2]) of 60%. The inhibition at 0.014 ppm (Pyrenophora graminea; [3]) was 20%, the inhibition at 0.041 ppm (Pyrenophora graminea; [3]) was 29% and the inhibition at 0.123 ppm (Pyrenophora graminea; [3]) was 41%. The inhibition at 0.37 ppm (Pyrenophora graminea; [3]) was 70%, the inhibition at 1.111 ppm (Pyrenophora graminea; [3]) was 86% and the inhibition at 3.333 ppm (Pyrenophora graminea; [3]) was 87%. It also gave an inhibition at 10 ppm (Pyrenophora graminea; [3]) of 86%, an inhibition at 0.014 ppm (Fusarium graminearum; Fusarium graminearum, 48 h, read-out: % activity observed, 0.014 ppm applied alone) of 8% and an inhibition at 0.041 ppm (Fusarium graminearum; Fusarium graminearum, 48 h, read-out: % activity observed, 0.041 ppm applied alone) of 6%. It also gave an inhibition at 0.123 ppm (Fusarium graminearum; Fusarium graminearum, 48 h, read-out: % activity observed, 0.123 ppm applied alone) of 14%, an inhibition at 0.37037 ppm (Fusarium graminearum; Fusarium graminearum, 48 h, read-out: % activity observed, 0.3703704 ppm applied alone) of 16% and an inhibition at 1.11111 ppm (Fusarium graminearum; Fusarium graminearum, 48 h, read-out: % activity observed, 1.1111111 ppm applied alone) of 34%. The inhibition at 3.33333 ppm (Fusarium graminearum; Fusarium graminearum, 48 h, read-out: % activity observed, 3.3333333 ppm applied alone) was 73% and the inhibition at 10 ppm (Fusarium graminearum; [4]) was 92%.

COCC(=O)N(c1c(C)cccc1C)[C@H](C)C(=O)OC [Mefenoxam] was tested, and the “% activity observed” value (Ustilago nuda; 48 hrs) was 0% and 2% and 5% and 8%, the “% activity observed” value (Pyrenophora graminea) was 0% and 5% and the “% activity observed” value (Monographella nivalis) was 0%. For the same compound, the “% activity observed” value (Fusarium graminearum; 0.014 ppm applied alone) was 6%, the “% activity observed” value (Fusarium graminearum; 0.041 ppm applied alone) was 0% and the “% activity observed” value (Fusarium graminearum; 0.123 ppm applied alone) was 0%. For the same compound, the “% activity observed” value (Fusarium graminearum; 0.370 ppm applied alone) was 0%, the “% activity observed” value (Fusarium graminearum; 1.111 ppm applied alone) was 0% and the “% activity observed” value (Fusarium graminearum; 3.333 ppm applied alone) was 2%. For the same compound, the “% activity observed” value (Fusarium graminearum; 10.000 ppm applied alone) was 1% and the “% activity observed” value (Gaeumannomyces graminis) was 0% and 4% and 3%.

With CC(C)(C)C(O)(CCc1ccc(Cl)cc1)Cn1cncn1 (stereo not shown) [Tebuconazole] the “% activity observed” value (Pythium ultimum; 48 hrs) was 2% and 4% and 0%, the inhibition at 0.123 ppm (Pythium ultimum; [1]) was 1% and the inhibition at 10 ppm (Pythium ultimum; [1]) was 22%. It also gave an inhibition at 3.333 ppm (Rhizoctonia solani) of 96%, an inhibition at 10 ppm (Rhizoctonia solani) of 100% and an inhibition at 0.014 ppm (Ustilago nuda; [2]) of 0%. The inhibition at 0.041 ppm (Ustilago nuda; [2]) was 0%, the inhibition at 10 ppm (Ustilago nuda; [2]) was 26% and the “% activity observed” value (Pyrenophora graminea) was 54% and 89% and 74%. The inhibition at 0.041 ppm (Pyrenophora graminea; [3]) was 17%, the inhibition at 0.123 ppm (Pyrenophora graminea; [3]) was 48% and the inhibition at 0.37 ppm (Pyrenophora graminea; [3]) was 57%. The inhibition at 1.111 ppm (Pyrenophora graminea; [3]) was 77%, the inhibition at 3.333 ppm (Pyrenophora graminea; [3]) was 87% and the inhibition at 10 ppm (Pyrenophora graminea; [3]) was 94%. For the same compound, the “% activity observed” value (Monographella nivalis) was 6%, the inhibition at 0.014 ppm (Monographella nivalis; [5]) was 9% and the inhibition at 0.041 ppm (Monographella nivalis; [5]) was 3%. For the same compound, the inhibition at 1.111 ppm (Monographella nivalis; [5]) was 0%, the inhibition at 3.333 ppm (Monographella nivalis; [5]) was 62% and the inhibition at 10 ppm (Monographella nivalis; [5]) was 94%. The “% activity observed” value (Fusarium graminearum; 0.014 ppm applied alone) was 3% and 1%, the “% activity observed” value (Fusarium graminearum; 0.041 ppm applied alone) was 11% and 5% and 9% and the “% activity observed” value (Fusarium graminearum; 0.370 ppm applied alone) was 34% and 39%. The “% activity observed” value (Fusarium graminearum; 1.111 ppm applied alone) was 62% and 55%, the “% activity observed” value (Fusarium graminearum; 3.333 ppm applied alone) was 88% and the “% activity observed” value (Fusarium graminearum; 10.000 ppm applied alone) was 95% and 97%. For the same compound, the inhibition at 0.0137 ppm (Fusarium graminearum; Fusarium graminearum, 48 h, read-out: % activity observed, 0.0137 ppm applied alone) was 0%, the inhibition at 0.0412 ppm (Fusarium graminearum; Fusarium graminearum, 48 h, read-out: % activity observed, 0.0412 ppm applied alone) was 7% and the inhibition at 0.1235 ppm (Fusarium graminearum; Fusarium graminearum, 48 h, read-out: % activity observed, 0.1235 ppm applied alone) was 16%. For the same compound, the inhibition at 0.37 ppm (Fusarium graminearum; Fusarium graminearum, 48 h, read-out: % activity observed, 0.370 ppm applied alone) was 37%, the inhibition at 0.3704 ppm (Fusarium graminearum; Fusarium graminearum, 48 h, read-out: % activity observed, 0.3704 ppm applied alone) was 33% and the inhibition at 1.111 ppm (Fusarium graminearum; Fusarium graminearum, 48 h, read-out: % activity observed, 1.111 ppm applied alone) was 50%. The inhibition at 1.1111 ppm (Fusarium graminearum; Fusarium graminearum, 48 h, read-out: % activity observed, 1.1111 ppm applied alone) was 66%, the inhibition at 3.333 ppm (Fusarium graminearum; Fusarium graminearum, 48 h, read-out: % activity observed, 3.333 ppm applied alone) was 98% and the inhibition at 3.3333 ppm (Fusarium graminearum; Fusarium graminearum, 48 h, read-out: % activity observed, 3.3333 ppm applied alone) was 94%. The inhibition at 10 ppm (Fusarium graminearum; [4]) was 94%, the inhibition at 10 ppm (Fusarium graminearum; Fusarium graminearum, 48 h, read-out: % activity observed, 10.000 ppm applied alone) was 100% and the “% activity observed” value (Gaeumannomyces graminis) was 100%. For the same compound, the inhibition at 0.041 ppm (Gaeumannomyces graminis; [6]) was 16%, the inhibition at 0.123 ppm (Gaeumannomyces graminis; [6]) was 64% and the inhibition at 0.37 ppm (Gaeumannomyces graminis; [6]) was 97%. The inhibition at 1.111 ppm (Gaeumannomyces graminis; [6]) was 98%, the inhibition at 3.333 ppm (Gaeumannomyces graminis; [6]) was 98% and the inhibition at 10 ppm (Gaeumannomyces graminis; [6]) was 96%.
